From patent US5378848A, “Condensed imidazopyridine derivatives” (Shionogi & Co., Ltd., priority 1992, dated 1995)

Experiments:
[1] = target: Benzodiazepine Receptor; test: Test on Binding to Benzodiazepine Receptor (inhibition of specific binding of tritium-labeled diazepam); set-up: species or system male Wistar rats; details: rat cerebral cortex; 2 nM tritium-labeled diazepam; 0° C., 60 minutes; Ki=IC50÷(1+L/Kd)
Experimental: This test was carried out modifying partially a method of Moehler & Okada, Science, 198, 849-851 (1977). Receptor preparation was provided from the cerebral cortex of male Wistar rats (11-13 weeks age). Inhibitory action of the test compound on the specific binding of tritium-labeled diazepam to the receptor was evaluated as follows: 2 nM tritium-labeled diazepam and an aqueous solution of the test compound in 5 or 6 different concentrations were incubated with the receptor preparation at 0° C. for 60 minutes. The 50% inhibitory concentration (IC50) was measured by the concentration-response curve. In addition, the inhibitory constant (Ki) of the test compound was calculated by dissociation constant (Kd) and concentration (L) of tritium-labelled diazepam.

[2] = tested on: Pentylenetetrazole-Induced Convulsion; test: Antagonism of Pentylenetetrazole-Induced Convulsion (agonistic activity); assay type: in vivo; details: Mus musculus, iv; male mice; test compound i.v.; pentylenetetrazole 125 mg/kg s.c.; 2-hour observation; probit method; read-out: ED50 (dose required to prevent tonic convulsion and death in 50% of the animals)
Experimental: (§1) Agonistic activity was evaluated in this Experiment. Pentylenetetrazole was subcutaneously administered male mice (a group of 8-16 male mice was employed in each test) at a dose of 125 mg/kg immediately after intravenous injection of the test compound. The dose (ED50) required to prevent tonic convulsion and death in 50% of the animals during subsequent 2-hour observation period was calculated by the probit method.

[3] = tested on: human memory; details: M. Sarter et al., TINS 11, 13 (1988); cited from earlier work
[4] = tested on: Pentylenetetrazole-Induced Convulsion; test: Potentiation of Pentylenetetrazole-Induced Convulsion (inverse agonist activity); assay type: in vivo; details: Mus musculus, iv; male mice; test compound i.v.; pentylenetetrazole 90 mg/kg s.c.; 2-hour observation; probit method; read-out: ED50 (dose required to produce tonic convulsion and death in 50% of the animals)
Experimental: as §1, with “Inverse agonist” for “Agonistic”, “subscutaneously” for “subcutaneously”, “90” for “125”, “produce” for “prevent”

c1cc(-c2nc3cnc4c(c3[nH]2)CCCC4)no1 [Ia-7, 2-(3-Isoxazolyl) -6,7,8,9-tetrahydro-1H-imidazo[4,5-c]quinoline]
Ki [1]: 1.3 nM

c1csc(-c2nc3cnc4c(c3[nH]2)CCCCC4)c1 [Ic-3]
Ki [1]: 6.06 nM

Cc1cc(-c2nc3cnc4c(c3[nH]2)CCCC4)on1 [Ia-6]
Ki [1]: 2.19 nM
ED50 [2]: 0.17 mg/kg

CN1C(=O)CN=C(c2ccccc2)c2cc(Cl)ccc21 [diazepam]
effect on human memory [3]: inhibits human memory

Cc1cc(-c2nc3cnc4c(c3[nH]2)CCC4)on1 [Id-2]
Ki [1]: 8.94 nM
ED50 [2]: 0.74 mg/kg

c1csc(-c2nc3cnc4c(c3[nH]2)CCCC4)c1 [Ia-3]
Ki [1]: 1.9 nM

CCOC(=O)N1CCc2ncc3nc(-c4ccon4)[nH]c3c2C1 [Ig-1, 2-(3-isoxazolyl)-8-ethoxycarbonyl-6,7,8,9-tetrahydro-1H-imidazo[4,5-c]naphthylidine]
Ki [1]: 2.8 nM
ED50 [2]: 3.69 mg/kg

c1ccc(-c2nc3cnc4c(c3[nH]2)CCCC4)cc1 [Ia-1, 2-Phenyl-6,7,8,9-tetrahydro-1H-imidazo[4,5-c]quinoline]
Ki [1]: 13.7 nM
ED50 [2]: 7.85 mg/kg

Cc1cc(-c2nc3cnc4c(c3[nH]2)COCC4)on1 [Ib-5]
Ki [1]: 6.97 nM
ED50 [2]: 0.8 mg/kg

c1coc(-c2nc3cnc4c(c3[nH]2)CCCC4)c1 [Ia-5]
Ki [1]: 3.46 nM

c1cc(-c2nc3cnc4c(c3[nH]2)COCC4)no1 [Ib-7, 2-(3-Isoxazolyl)-1,6,7,9-tetrahydroimidazo[4,5-d]pyrano[4,3-b]pyridine]
Ki [1]: 2.09 nM
ED50 [4]: 1.27 mg/kg

Cc1cc(-c2nc3cnc4c(c3[nH]2)CCCCC4)on1 [Ic-7]
Ki [1]: 9.47 nM
ED50 [2]: 1.05 mg/kg

c1cc(-c2nc3cnc4c(c3[nH]2)CCCCC4)no1 [Ic-6]
Ki [1]: 2.29 nM

c1cc(-c2nc3cnc4c(c3[nH]2)CCC4)no1 [Id-1]
Ki [1]: 2.55 nM
ED50 [4]: 0.4 mg/kg

CC1(C)Cc2ncc3nc(-c4ccon4)[nH]c3c2C1 [Ie-1, 2-(3-Isoxazolyl]-7,7-dimethyl-1H-imidazo[4,5-d]-cyclopenta[b]pyridine]
Ki [1]: 7.2 nM
ED50 [4]: 0.25 mg/kg

c1cc(-c2nc3cnc4c(c3[nH]2)CSCC4)no1 [If-1, 2-(3-Isoxazolyl)-1,6,7,9-tetrahydroimidazo[4,5-d]-thiopyrano[4,3-b]pyridine]
Ki [1]: 0.44 nM
ED50 [4]: 0.96 mg/kg
